Patent US20220168384A1, “Anti-Bacterial Combination Therapy” (McMaster University, priority 2019, published 2022)
Several values for one entry are separate records, joined by “and”; a condition that tells them apart may be missing. Equal values may be shown once.

What was measured:
[1] = system: Acinetobacter baumannii clinical isolates; assay: Clinical isolates testing, A. baumannii; type: cell-based; details: 10:90
Description: Clinical isolates of P. aeruginosa and A. baumannii were inoculated from −80° C. stocks into 200 μL LB broth and grown with shaking at 200 rpm, 16 h, 37° C. in Nunc 96-well plates. The overnight cultures were subcultured (1:25 dilution) into 10:90 and grown with shaking at 200 rpm, 2 h, 37° C. Vehicle controls consisted of 4 μL of DMSO, 144 μL 10:90 and 2 μL of subculture. Sterile controls consisted of 4 μL of DMSO and 146 μL 10:90. […]. The final volume of each well was 150 μL and each checkerboard was repeated at least three times. Plates were incubated with shaking at 200 rpm, 16 h, 37° C. and OD600 was measured (Multiskan Go—Thermo Fisher Scientific). The results were plotted as percent of control (wells containing only DMSO) using Prism (GraphPad).
Clinical isolates were grown and tested as described in Example 1. Briefly, clinical isolates were inoculated from glycerol stocks stored at −80° C. into Nunc 96-well plates and grown overnight at 37° C., for 16 h with shaking in LB (200 rpm). Overnights were subcultured (1:25) into fresh 10:90 medium and grown for 2 h under the same growth conditions. Subcultures were diluted 1:75 in fresh 10:90. Compounds were diluted 1:75 to obtain the final concentration. DOXY and CLI were added at a final concentration of 1 μg/mL, CO was used at 2 μg/mL, TRO was used at 4 μg/mL, TS was used at 8.3 μg/mL, and DSX was used at 32 μg/mL. Vehicle and sterility controls were included. Plates were incubated overnight with the same conditions. The OD600 was read (Multiscan Go—Thermo Fisher Scientific), analyzed using Excel, and the data plotted using Prism (GraphPad).
Culture conditions, checkerboard assays using P. aeruginosa PA14 and dose-response assays were performed as described in Example 1. In addition to TS, other thiopeptides tested were siomycin A (SM), thiocillin I (TC), micrococcin P1 (MC), nosiheptide (NH), berninamycin A (BER), and geninthiocin A (GEN). For dose response assays of the combinations conducted in 10:90, DSX concentration was constant at 64 μg/mL.

[2] = system: P. aeruginosa PAO1 and PA14 expressing Tsr; assay: TS susceptibility of P. aeruginosa expressing tsr in trans from pUCP20; type: cell-based, Pseudomonas aeruginosa; details: VBMM
Description: A) Growth of PAO1; B) Growth of PA14. Each assay was performed at least 3 times in triplicate; **** p<0.0001.
The tsr gene from pIJ6902 was PCR-amplified using primers 5′[…]-3′ and 5′[…]-3′. Both the PCR product and pUCP20 vector were digested with SmaI and HindIII, gel-purified, and ligated at a 1:3 molar ratio using T4 DNA ligase. The ligated DNA was transformed into E. coli DH5a and transformants selected on LB agar containing 100 μg/mL ampicillin and 5-bromo-4-chloro-3-indolyl-β-D-galactopyranoside for blue-white selection. Plasmids from white colonies were purified using a GeneJet Plasmid Miniprep kit (Thermo Scientific) following the manufacturer's protocols. After verification by restriction digest and DNA sequencing, pUCP20 and pUCP20-tsr were each introduced into P. aeruginosa PAO1 and PA14 by electroporation. Transformants were selected on LB agar containing 200 μg/mL carbenicillin.

C=C(NC(=O)C(=C)NC(=O)c1csc(C2=N[C@@H]3c4csc(n4)[C@H]4NC(=O)c5csc(n5)[C@H]([C@](C)(O)[C@@H](C)O)NC(=O)[C@H]5CSC(=N5)/C(=C/C)NC(=O)[C@H]([C@@H](C)O)NC(=O)c5csc(n5)[C@]3(CC2)NC(=O)[C@H](C)NC(=O)C(=C)NC(=O)[C@H](C)NC(=O)[C@H]([C@@H](C)CC)N[C@@H]2C=Cc3c([C@H](C)O)cc(nc3[C@H]2O)C(=O)O[C@@H]4C)n1)C(N)=O [TS, thiostrepton]
susceptibility of A. baumannii strain C0286 [1]: resistant | activity at 5 µM ([1]; Acinetobacter baumannii, 5 μM TS, 6 of 10 strains, read-out: growth, % of control): ≤ 50% | resistance to TS compared to vector-only control ([2]; PA14 expressing tsr in trans (pUCP20-tsr)): significantly increased | TS concentration up to which the strain was resistant ([2]; PAO1 expressing tsr in trans (pUCP20-tsr)): 10 µM | solubility (physchem): 10 µM and 17 µg/mL
